Test results published in US20170157135A1 (Novogen Limited, priority 2013, published 2017).

What was measured:
Type in all cases: cell-based
[1] = system: SHEP neuroblastoma (SH-EP) cells; assay: Cell viability assay (MTT), SHEP; settings: 48 hr treatment
Method: (§1) Cell viability assays were also conducted to assess the anti-proliferative effects of the anti-tropomyosin compounds. Briefly, cells (1×10^3/well) were plated (96-well) and treated (48 hr) with anti-tropomyosin drug and viability measured using 3-(4,5-dimethylthiazol-2-yl)-2,5-diphenylterazolium bromide MTT. Cell viability was normalized to control (vehicle alone) and dose-response curves, and half maximal effective concentration (EC50) values were determined using Graph Pad Prism 5 (nonlinear regression sigmoidal dose-response variable slope).

[2] = system: SKMEL28 melanoma (SK-MeI-28) cells; assay: Cell viability assay (MTT), SKMEL28; settings: Homo sapiens, SK-MEL-28, 48 hr treatment
Method: as §1

SK-Mel-28 melanoma cells = assay: Anti-proliferative assay (cell-titre luminescent), SK-Mel-28; settings: Homo sapiens; SK-Mel-28, 72 hours, luminescence
Method: (§2) The ability of compounds 2002, 2009 and 2013-2064 to inhibit the proliferation of cancer cells representative of neuroblastoma, melanoma, prostate cancer, colorectal cancer, non-small cell lung carcinoma, and triple negative breast cancer was assessed. These studies were conducted by contract research (GVK-BIO). Briefly, a pre-determined number of cells as calculated from cell growth assays for each of the cell lines employed were seeded into their respective culture medium (using ATCC culture parameters—http://www.atcc.org) and cultured for 24 h at 37° C. and 5% CO2 in 96-well culture plates. Once attached, each cell line was then exposed to various concentrations of each respective analogue (30, 10, 3, 1, 0.3 and 0.1 μM), cultured for a further 72 hours and exposed to cell-titre luminescent reagent (100 μL/well) for a further 30 minutes). Luminescence was captured using an EnVision multilabel reader and the data for each analogue concentration compared against no treatment control. Cell viability was normalized to control (vehicle alone) and dose-response curves, and half maximal effective concentration (EC50) values were determined using Graph Pad Prism 6 (nonlinear regression sigmoidal dose-response variable slope).

[3] = system: SK-N-SH neuroblastoma cells; assay: Anti-proliferative assay (cell-titre luminescent), SK-N-SH; settings: Homo sapiens, 72 hours, luminescence
Method: as §2

A549 lung (NSLC) cells = assay: Anti-proliferative assay (cell-titre luminescent), A549; settings: Homo sapiens; A549, 72 hours, luminescence
Method: as §2

[4] = system: DU145 prostate cancer cells; assay: Anti-proliferative assay (cell-titre luminescent), DU145; settings: Homo sapiens, DU-145; DU145, 72 hours, luminescence
Method: as §2

[5] = system: CaCo2 colorectal cancer cells; assay: Anti-proliferative assay (cell-titre luminescent), CaCo2; settings: Homo sapiens, Caco-2; CaCo2, 72 hours, luminescence
Method: as §2

[6] = system: MDA-MB-231 breast cancer cells; assay: Anti-proliferative assay (cell-titre luminescent), MDA-MB-231; settings: Homo sapiens; MDA-MB-231, 72 hours, luminescence
Method: as §2

[7] = system: PC3 prostate cancer cells; assay: Anti-proliferative assay (cell-titre luminescent), PC3; settings: PC3, 72 hours, luminescence
Method: as §2

| SMILES | IC50 [1] | IC50 [2] | IC50 (SK-Mel-28 melanoma cells) | IC50 [3] | IC50 (A549 lung (NSLC) cells) | IC50 [4] | IC50 [5] | IC50 [6] | IC50 [7] |
| --- | --- | --- | --- | --- | --- | --- | --- | --- | --- |
| CCCCN1CCN(C(=O)/C=C/c2c(C)n(CCCN(C)C)c3ccccc23)CC1 [Compound 2005, (E)-1-(4-butylpiperazin-1-yl)-3-(1-(3-(dimethylamino)propyl)-2-methyl-1H-indol-3-yl)prop-2-en-1-one] | 12.9 µM | 41 µM | – | – | – | – | – | – | – |
| Cc1c(/C=C/C(=O)N2CCN(CCc3ccccc3)CC2)c2ccccc2n1CCCN1CCOCC1 [Compound 2007, (E)-3-(2-methyl-1-(3-morpholinopropyl)-1H-indol-3-yl)-1-(4-phenethylpiperazin-1-yl)prop-2-en-1-one] | 24 µM | 33.1 µM | – | – | – | – | – | – | – |
| COc1ccc(CN2CCN(C(=O)/C=C/c3c(C)n(CCCN(C)C)c4ccccc34)CC2)cc1 [Compound 2010, (E)-3-(1-(3-(dimethylamino)propyl)-2-methyl-1H-indol-3-yl)-1-(4-(4-methoxybenzyl)piperazin-1-yl)prop-2-en-1-one] | 3.2 µM | 2.75 µM | – | – | – | – | – | – | – |
| C/C(=C\C(=O)N1CCN(CCc2ccccc2)CC1)c1c(C)n(CCCN(C)C)c2ccccc12 [Compound 2001, (E)-3-(1-(3-(dimethylamino)propyl)-2-methyl-1H-indol-3-yl)-1-(4-phenethylpiperazin-1-yl)but-2-en-1-one] | 11.5 µM | 1.64 µM | – | – | – | – | – | – | – |
| Cc1nc(-c2cn(CCCN(C)C)c3ccccc23)cc(N2CCN(CCc3ccccc3)CC2)n1 [Compound 2012, N,N-dimethyl-3-(3-(2-methyl-6-(4-phenethylpiperazin-1-yl)pyrimidin-4-yl)-1H-indol-1-yl)propan-1-amine] | 21.7 µM | 3.2 µM | – | – | – | – | – | – | – |
| CCOc1ccc2c(c1)c(/C=C/C(=O)N1CCN(CCc3ccc(F)cc3)CC1)c(C)n2CCCN1CCN(C)CC1 [Compound 2037, (E)-3-(5-ethoxy-2-methyl-1-(3-(4-methylpiperazin-1-yl)propyl)-1H-indol-3-yl)-1-(4-(4-fluorophenethyl)piperazin-1-yl)prop-2-en-1-one] | – | – | 2.7 µM | 3.1 µM | 6.6 µM | 5 µM | 4.8 µM | 5 µM | 8.7 µM |
| CCN(CC)CCCn1c(C)c(/C=C/C(=O)N2CCN(CCc3cccc(OC)c3)CC2)c2cc(OC)ccc21 [Compound 2027, (E)-3-(1-(3-(diethylamino)propyl)-5-methoxy-2-methyl-1H-indol-3-yl)-1-(4-(3-methoxyphenethyl)piperazin-1-yl)prop-2-en-1-one] | – | – | 3.8 µM | 8.2 µM | 23.5 µM | 51.9 µM | 12.3 µM | 5.6 µM | 9.3 µM |
| CCN(CC)CCCn1c(C)c(/C=C/C(=O)N2CCN(CCc3ccc4c(c3)OCO4)CC2)c2cc(OC)ccc21 [Compound 2025, (E)-1-(4-(2-(benzo[d][1,3]dioxol-5-yl)ethyl)piperazin-1-yl)-3-(1-(3-(diethylamino)propyl)-5-methoxy-2-methyl-1H-indol-3-yl)prop-2-en-1-one] | – | – | 4.1 µM | 4.1 µM | 4.7 µM | 15.6 µM | 16.5 µM | 30 µM | 7.6 µM |
| CCN(CC)CCCn1c(C)c(/C=C/C(=O)N2CCN(CCc3ccc(F)cc3)CC2)c2cc(OC)ccc21 [Compound 2023, (E)-3-(1-(3-(diethylamino)propyl)-5-methoxy-2-methyl-1H-indol-3-yl)-1-(4-(4-fluorophenethyl)piperazin-1-yl)prop-2-en-1-one] | – | – | 2.7 µM | 3.6 µM | 5.2 µM | 4.4 µM | 10.3 µM | 4.6 µM | 5.6 µM |
